Laboratory results published in PMC8602723, “Comparative assessment of antimicrobial, antiradical and cytotoxic activities of cannabidiol and its propyl analogue cannabidivarin” (Scientific Reports, 2021).
Where two headings read alike, the source gives them in different places.

Tests used:
A549 cells = assay: MTT assay (mitochondrial metabolism); assay type: cell-based; settings: Homo sapiens, read-out: IC50 MTT assay
Description: (§1) MTT assay is the most commonly used method for high-throughput identification of the antiproliferative effects of compounds on cultured cells and is indirectly correlated with mitochondria-dependent apoptosis progression[59]–[61]. The production of reducing equivalents such as NADH in metabolically active cells is an indicator of “cell redox activity”, indirectly reflecting the number of viable cells[60],[61] and the mitochondrial metabolic rate in cells[62],[63].
(§2) A549, Caco-2, HepG2 and TelCOFS02MA cells (1 × 10^4 cells/well), and MDA-MB-231 cells (0.5 × 10^4 cells/well) were seeded in 100 µL of fresh medium into 96-well plates (TC-Plate 96 wells, Sarstedt, Verona, Italy) in quadruplicate for 24 h at 37 °C in a humidified atmosphere of 95% air plus 5% CO2. Then, the medium was removed and replaced with 200 µL of media with different concentrations of CBD (5–80 µM, dilution factor [DF] equal to 2) and CBDV (5.5–88 µM, DF = 2) chosen on the basis of range-finding tests (0.5, 5, and 50 mg/L). We chose 1.56–25 mg/L to be tested and, to make easier the comparison between the two cannabinoids activities, the concentrations were reported in [μM]. In all experiments, negative controls (wells containing cells exposed only to the medium) and solvent controls (wells containing cells exposed to 2.5% methanol) were included. The plates were incubated at 37 °C for three exposure times: 24, 48 and 72 h (different plates were prepared for each specific time point). Then, MTT solution (5 mg/mL) was added to each well, and the plates were re-incubated for 4 h at 37 °C. The culture medium was removed, and 2-propanol was used to dissolve formazan crystals. The absorbance of formazan was measured spectrophotometrically at 590 nm using an automated microplate reader (Synergy H1, Biotek, Winooski, USA). The results are reported as the percentages of cells with inhibited proliferation, as determined by the link between the inhibition of mitochondrial metabolic activity and proliferation. The results were calculated with the following formula:1 IC%=1-OD590sample/OD590negativecontrol·100
(§3) Furthermore, IC50 values (concentrations of the sample used to obtain an inhibition of 50% of cell growth/metabolic activity) were calculated.
(§4) All results from five independent experiments are expressed as the IC50 or EC50 as determined by analysis with Prism 5 software (GraphPad Inc., San Diego, CA, USA) and nonlinear regression (log agonist vs. normalized response-variable slope) with a 95% confidence range. Lowest observed adverse effect concentrations (LOAECs) were calculated by one-way ANOVA and Dunnett’s comparison test. Differences compared to the controls were considered significant as follows: *p < 0.05, **p < 0.001 and ***p < 0.0001.

Hep G2 cells [1] = assay: MTT assay (mitochondrial metabolism); assay type: cell-based; settings: Homo sapiens, read-out: IC50 MTT assay
Description: as §1, §2, §3, §4

Caco-2 cells = assay: BrdU-ELISA (DNA synthesis inhibition); assay type: cell-based, human; settings: for IC50: Homo sapiens, read-out: IC50 BrdU-ELISA
Protocol: (§5) BrdU-ELISA was performed according to the protocol described by Lehmann and collaborators, and the results were used to evaluate the inhibition of DNA synthesis. A total of 1 × 10^4 cells/well were seeded in 100 µL of fresh medium into 96-well plates in triplicate at 37 °C in a humidified atmosphere of 95% air plus 5% CO2 for 24 h. Then, the medium was removed and replaced with 200 µL of medium with the same concentrations of CBD and CBDV that had been used in the previous test. In all experiments, blanks (wells with medium and without cells), negative controls (with only medium) and solvent controls (2.5% methanol) were included. The plates were incubated at 37 °C for 72 h. Then, 20 µL of 100 µM BrdU labelling solution was added to each well and incubated for 2 h at 37 °C. After removing the labelling solution, 200 µl of DNA fixing/denaturing solution was added to each well and incubated for 30 min at room temperature. After its discharge, 100 µL of the anti-BrdU-POD antibody solution [0.075 U/mL] was added to each well and incubated for 90 min at room temperature. After several washing steps with 1X PBS (200–300 µL/well), 100 µl of tetramethylbenzidine (TMB) was added to each well and incubated for 20–30 min (sufficient time for the colour change). The incorporation of BrdU into DNA was quantified spectrophotometrically at 370 nm. […] The mean absorbance of the control cells represented 100% cell proliferation, and the mean absorbance of the treated cells was related to the control values to determine cell sensitivity. Inhibition (%) of DNA synthesis/cell viability was determined as follows:2 IC%=1-OD370sample/OD370negativecontrol·100
(§6) IC50 values (representing the median concentration at which DNA synthesis and cell viability were reduced by 50%) were calculated.
as §4

Hep G2 cells [2] = assay: BrdU-ELISA (DNA synthesis inhibition); assay type: cell-based, human; settings: for IC50: Homo sapiens, read-out: IC50 BrdU-ELISA
Protocol: as §5, §6, §4

TelCOFS02MA cells = assay: BrdU-ELISA (DNA synthesis inhibition); assay type: cell-based, human; settings: for IC50: Homo sapiens, read-out: IC50 BrdU-ELISA
Protocol: as §5, §6, §4

[3] = ABTS assay (radical scavenging); settings: for TEAC (Trolox equivalent antioxidant capacity), ABTS: EC50 Trolox/EC50 sample; for ABTS scavenging capacity less than the capacity of Trolox: compared with Trolox
Protocol: An ABTS assay was performed following the procedure described by Lavorgna et al. 2019[66]. The cationic ABTS radical (ABTS^+) was generated by oxidizing ABTS (7 mM) with potassium persulfate (140 mM K2S2O8), and the mixture was incubated for 12–16 h in the dark. The ABTS^+ working solution was diluted to an absorbance of […] OD at 734 nm. […] Distilled water was used for the blank, Trolox was used for the standard control, and methanol was used for the solvent control.
The results are expressed as the median effective concentration (EC50). Furthermore, Trolox equivalent antioxidant capacity (TEAC) values were calculated following the procedure used by Shimamura end colleagues[68]:5 TEAC=EC50Trolox/EC50sample
as §4

[4] = DPPH assay (radical scavenging); settings: for DPPH scavenging capacity less than the capacity of Trolox: compared with Trolox
Protocol: DPPH assay was performed following the protocol described by Brand-Williams et al.[69]. DPPH^⋅ was dissolved in methanol, generating a purple solution (101.43 µM). […] Furthermore, 940 μL of methanol and 60 μL of distilled water were used for the blank. Trolox was used as the standard control, and methanol was used as the solvent control.
The results were expressed as the median effective concentration of sample able to reduce the initial absorbance of the DPPH radical (EC50). Furthermore, TEAC values were calculated in line with Shimamura end colleagues[68] as previously reported.
as §4

[5] = system: SZ95, normal-like sebocytes; set-up: method as in PMID 27094344; settings: 24 h of treatment; cited from earlier work
S. aureus = system: S. aureus; set-up: method as in PMID 33469147; settings: S. aureus exposed at 6–14 µM; cited from earlier work
[6] = HepG2, Hep G2, 72 h exposure, 95% confidence interval in brackets

SMILES | IC50 (A549 cells; A549, 72 h) [µM] | IC50 (Hep G2 cells [1]; HepG2, 72 h) [µM] | LOAEC BrdU-ELISA (Caco-2 cells; Caco-2, 72 h) [µM] | IC50 (Caco-2 cells; Caco-2, 72 h) [µM] | LOAEC BrdU-ELISA (Hep G2 cells [2]; Hep G2, 72 h) [µM] | IC50 (Hep G2 cells [2]; HepG2, 72 h) [µM] | IC50 (TelCOFS02MA cells; 72 h) [µM] | LOAEC BrdU-ELISA (TelCOFS02MA cells; TelCOFS02MA, 72 h) [µM] | TEAC (Trolox equivalent antioxidant capacity), ABTS [3] | ABTS scavenging capacity less than the capacity of Trolox [3] [%] | TEAC (Trolox equivalent antioxidant capacity), DPPH ([4]; EC50 Trolox/EC50 sample) | DPPH scavenging capacity less than the capacity of Trolox [4] [%] | concentration giving a significant decrease in cell viability (MTT) [5] [nM] | IC50 (A549 cells; A549, 72 h exposure, 95% confidence interval in brackets) [µM] | IC50 (Hep G2 cells [1]; [6]) [µM] | IC50 (Caco-2 cells; Caco-2, 72 h exposure, 95% confidence interval in brackets) [µM] | IC50 (Hep G2 cells [2]; [6]) [µM] | IC50 (TelCOFS02MA cells; TelCOFS02MA, 72 h exposure, 95% confidence interval in brackets) [µM] | protein, DNA, RNA and peptidoglycan synthesis (S. aureus)
C=C(C)[C@@H]1CCC(C)=C[C@H]1c1c(O)cc(CCC)cc1O [CBDV, cannabidivarin] | 32.9 | 19.7 | 22 | 40.4 | 22 | 46.7 | 69.1 | 44 | 0.27 | 73 | 0.09 | 91 | 100 | – | – | – | – | – | –
C=C(C)[C@@H]1CCC(C)=C[C@H]1c1c(O)cc(CCCCC)cc1O [CBD, Cannabidiol] | – | – | – | – | – | – | – | – | 0.21 | 79 | – | 90 | – | 27.7 | 15.8 | 33.3 | 39.2 | 49.1 | inhibited
